Source: patent US20240261253A1, “DAUR[…] AND IT'S USE IN MEDICINE” (Phytotherapeutix Ltd., priority 2021, published 2024)
Values after ≈ are worked out from the molar mass of the structure shown. Read-outs that look alike come from different tables or passages of the source.

Experiments:
H292 cells = assay: cytotoxicity (cell viability) in H292 cells; assay type: cell-based; details: 5 days
Protocol: (§1) A dilution series of each test compound (8-point, 10-fold dose titration) was added prophylactically for one hour, to cells. Cells were infected with virus for one hour, at a single concentration (100×TCID50 (Median Tissue Culture Infectious Dose). Additional media was added to the wells, with equivalent concentrations of compound added in for the duration of the study. Vehicle and positive control wells were set up to control for any influence of the compounds alone on cell viability. Cells were visually inspected for the appearance of any cytopathic effects (CPE). A cell viability assay was performed once CPE was complete.
(§2) • EC50: The concentration which results in 50% viral inhibition, following the addition of compounds. • CC50: The concentration which results in 50% cell viability, following the addition of compounds.
(§3) • 1. Cells permissible to infection, indicated in the Conditions Table, were grown and seeded into 96-well plates to a confluency of 80-90%. • 2. The test compounds were serially diluted 10-fold into 8 concentrations in total. The serial dilution was added to the cells for 1 hour prior to infection with each virus. Positive control compounds were included using the same treatment regimen. • 3. After pre-treatment, each virus was added to the cells for 1 h at 100×TCID50. A mock infection of blank media was added to the uninfected controls. • 4. After infection, the virus/media was removed and an overlay medium was added, with equivalent concentrations of the test compounds added in. • 5. […] A cell viability assay was performed on all conditions, with cells receiving the test treatment compared to the vehicle treated and uninfected controls.

[1] = cytotoxicity (cell viability) in H292 cells; assay type: cell-based; details: human, read-out: CC50 (50% cell viability)
Protocol: as §1, §2, §3

Human Coronavirus OC43 = assay: inhibition of HCoV OC43 infection in H292 cells (CPE/cell viability assay); assay type: cell-based, Human Coronavirus OC43 (Beta); details: for efficacy against HCoV OC43: H292 cells
Protocol: as §1
(§4) Inhibition was calculated as follows: […]
(§5) where: • A: mean optical density of test, • B: mean optical density of virus controls, • C: mean optical density of cell controls. • Negative values occur when A<B, due either to natural variation or compound toxicity.
as §2, §3

16HBE cells = assay: cytotoxicity (cell viability) in 16HBE cells; assay type: cell-based; details: 5 days
Protocol: as §1, §2, §3

[2] = cytotoxicity (cell viability) in 16HBE cells; assay type: cell-based; details: human, read-out: CC50 (50% cell viability)
Protocol: as §1, §2, §3

HIV = details: cited from earlier work
uninfected H9 cells = details: cited from earlier work
[3] = 5 mg/kg i.p., rodents; cited from earlier work
Human Coronavirus 229E = assay: inhibition of HCoV 229E infection in 16HBE cells (CPE/cell viability assay); assay type: cell-based, Human Coronavirus 229E (Alpha)
Protocol: as §1, §4, §5, §2
• 1. Cells permissible to infection, indicated in the Conditions Table, were grown and seeded into 96-well plates to a confluency of 80-90%. • 2. The test compounds were serially diluted 10-fold into 8 concentrations in total. […]

Compound: CC(C)=CCC/C(C)=C/CCC1(C)C=Cc2c(cc(C)c(C(=O)O)c2O)O1 (racemic) [1:1 mixture of (+)-DCA with (−)-DCA, (E)-2-(4,8-dimethylnona-3,7-dien-1-yl)-5-hydroxy-2,7-dimethyl-2H-chromene-6-carboxylic acid]
- CC50 (50% cell viability) (H292 cells): 5.938 µg/mL
- CC50 at 5 days [1]: 5.9 µg/mL
- efficacy against HCoV OC43 (Human Coronavirus OC43; listed as 1:1 mix of both): Efficacy was seen
- CC50 (50% cell viability) (16HBE cells): 8.225 µg/mL
- CC50 at 5 days [2]: 8.2 µg/mL

Compound: CC(C)=CCC/C(C)=C/CCC1(C)C=Cc2c(cc(C)c(C(=O)O)c2O)O1 (stereo in doubt) [(−)-DCA, (−)-(2S)-2-[(3E)-4,8-dimethylnona-3,7-dienyl]-5-hydroxy-2,7-dimethylchromene-6-carboxylic acid]
- CC50 at 5 days [1]: 15.1 µg/mL (≈ 40.8 µM)
- EC50 (Human Coronavirus OC43; Betacoronavirus 1, OC43, NCI-H292, 120 h, read-out: EC50 (50% viral inhibition), HCoV OC43, H292 cells, 5 days): 4.39 µg/mL
- efficacy against HCoV OC43 (Human Coronavirus OC43): Efficacy was seen
- EC50 (50% viral inhibition) (Human Coronavirus OC43; HCoV OC43, H292 cells, 5 days): 4.382 µg/mL (≈ 11.8 µM)
- CC50 at 5 days [2]: 35.7 µg/mL (≈ 96.4 µM)

Compound: CC(C)=CCC/C(C)=C/CC[C@@]1(C)C=Cc2c(cc(C)c(C(=O)O)c2O)O1 [(+)-DCA, (S,E)-2-(4,8-dimethylnona-3,7-dien-1-yl)-5-hydroxy-2,7-dimethyl-2H-chromene-6-carboxylic acid]
- CC50 at 5 days [1]: 9.27 µg/mL (≈ 25 µM)
- efficacy against HCoV OC43 (Human Coronavirus OC43): Efficacy was seen
- anti-HIV activity EC50 (HIV; acutely infected H9 cells): 0.00567 µg/mL
- inhibition of uninfected H9 growth EC50 (uninfected H9 cells): 21.1 µg/mL
- CC50 at 5 days [2]: 20.7 µg/mL (≈ 55.9 µM)

Compound: CCCCCc1cc2c(c(O)c1C(=O)O)C=CC(C)(CCC=C(C)C)O2 (centres unmarked) [CBCA, 5-hydroxy-2-methyl-2-(4-methylpent-3-enyl)-7-pentylchromene-6-carboxylic acid]
- plasma Cmax [3]: approx. 4 μg/mL
- side effects [3]: without any major side effects

Compound: CCC(CC)COC(=O)[C@H](C)N[P@](=O)(OC[C@H]1O[C@@](C#N)(c2ccc3c(N)ncnn23)[C@H](O)[C@@H]1O)Oc1ccccc1 [Remdesivir, reference compound]
- EC50 (Human Coronavirus OC43; Betacoronavirus 1, OC43, NCI-H292, 120 h, HCoV OC43, H292 cells, 5 days, read-out: EC50 (50% viral inhibition)): 0.029 µg/mL
- EC50 (Human Coronavirus OC43; Betacoronavirus 1, OC43, NCI-H292, HCoV OC43, read-out: EC50): 0.01 to 0.1 µM
- EC50 (Human Coronavirus 229E; 16HBE, read-out: EC50): 0.01 to 0.1 µM
- EC50 (Human Coronavirus 229E; 120 h, 16HBE cells, 5 days, read-out: EC50 (50% viral inhibition)): 0.023 µg/mL

Compound: CC(C)=CCC[C@@]1(C)[C@@H]2CC[C@]3(C)Oc4cc(C)c(C(=O)O)c(O)c4[C@H]1[C@H]23 [Rhododaurichromanic acid A]
- anti-HIV activity EC50 (HIV; in vitro): 0.37 µg/mL

Compound: CC(C)=CCC[C@]1(C)[C@@H]2CC[C@]3(C)Oc4cc(C)c(C(=O)O)c(O)c4[C@H]1[C@H]23 [Rhododaurichromanic acid B]
- anti-HIV activity (HIV; in vitro): no anti-HIV activity
